Here are results for six molecules from US12421278B2, “Immunomodulators” (Bristol-Myers Squibb Company, priority 2020, dated 2025).

Molecules are shown by their SMILES. Starred links: 1 amine or outer side, 2 acyl side, 3 side chain; linkers in the order of their positions; H or OH if unused. Positions of bridges follow the written chain, without caps; N, C: chain ends. Non-standard residues stand in square brackets, D forms with d. Residues, ends and D or L forms follow the SMILES beside them. Trp(1-CH2CO2Me) = COC(=O)Cn1cc(C[C@H](N)C(=O)O)c2ccccc21; Trp(1-CH2COOH) = N[C@@H](Cc1cn(CC(=O)O)c2ccccc12)C(=O)O; X4 = O=C(O)c1cc(NC(=S)[*:1])cc(NC(=S)[*:2])c1; X2 = O=C([C@H](CCNCC=[*:3])N[*:1])[*:2]; X1 = O=C([C@H](CNCC=[*:3])N[*:1])[*:2]; X3 = O=C(NCCCCCCNC(=O)[*:2])[*:1]; Hyp = O=C(O)[C@@H]1C[C@@H](O)CN1; Oxalyl = O=C(C(=O)[*:2])[*:1]; NMeNle = CCCC[C@H](NC)C(=O)O; NEtAla = CCN[C@@H](C)C(=O)O; NMeA = CN[C@@H](C)C(=O)O; Dab = NCC[C@H](N)C(=O)O; Dap = NC[C@H](N)C(=O)O

Usually IC50 stands for the concentration at which inhibition is half-maximal. A higher IC50 goes with weaker potency in that assay.

In the experiment the target is T1, PD-1/PD-L1 (Homo sapiens, UniProt Q9NZQ7).
T1 construct: TVMV protease site (C); made in house; host or cells: HEK293T cells
T1 sequence (Q9NZQ7 18-239): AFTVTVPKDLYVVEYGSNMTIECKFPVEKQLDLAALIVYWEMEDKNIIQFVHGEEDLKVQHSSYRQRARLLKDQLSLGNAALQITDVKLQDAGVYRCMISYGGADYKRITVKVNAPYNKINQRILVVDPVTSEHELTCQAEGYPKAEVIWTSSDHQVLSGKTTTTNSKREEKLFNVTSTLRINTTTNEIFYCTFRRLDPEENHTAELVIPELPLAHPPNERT
The experiment in a line: PD-1/PD-L1 Homogenous Time-Resolved Fluorescence (HTRF) binding assay. The following applies: PD-L1-His 10 nM final, PD-1-Ig 20 nM final. From the text:
The ability of the compounds of formula (I) to bind to PD-L1 was investigated using a PD-1/PD-L1 Homogenous Time-Resolved Fluorescence (HTRF) binding assay.
Homogenous Time-Resolved Fluorescence (HTRF) Binding Assay
The interaction of PD-1 and PD-L1 can be assessed using soluble, purified preparations of the extracellular domains of the two proteins. The PD-1 and PD-L1 protein extracellular domains were expressed as fusion proteins with detection tags, for PD-1, the tag was the Fc portion of Immunoglobulin (PD-1-Ig) and for PD-L1 it was the 6 histidine motif (PD-L1-His). All binding studies were performed in an HTRF assay buffer consisting of dPBS supplemented with 0.1% […] bovine serum albumin and 0.05% (v/v) Tween-20. For the h/PD-L1-His binding assay, inhibitors were pre-incubated with PD-L1-His (10 nM final) for 15 m in 4 μl of assay buffer, followed by addition of PD-1-Ig (20 nM final) in 1 μl of assay buffer and further incubation for 15 m. HTRF detection was achieved using europium crypate-labeled anti-Ig (1 nM final) and allophycocyanin (APC) labeled anti-His (20 nM final). Antibodies were diluted in HTRF detection buffer and 5 μl was dispensed on top of the binding reaction. The reaction mixture was allowed to equilibrate for 30 minutes and the resulting signal (665 nm/620 nm ratio) was obtained using an EnVision fluorometer. Additional binding assays were established between the human proteins PD-1-Ig/PD-L2-His (20 & 5 nM, respectively) and CD80-His/PD-L1-Ig (100 & 10 nM, respectively).
Recombinant Proteins: Human PD-1 (25-167) with a C-terminal human Fc domain of immunoglobulin G (Ig) epitope tag [hPD-1 (25-167)-3S-IG] and human PD-L1 (18-239) with a C-terminal His epitope tag [hPD-L1(18-239)-TVMV-His] were expressed in HEK293T cells and purified sequentially by ProteinA affinity chromatography and size exclusion chromatography. Human PD-L2-His and CD80-His was obtained through commercial sources.
Table 1 lists the IC50 values for representative examples of this disclosure measured in the PD-1/PD-L1 Homogenous Time-Resolved Fluorescence (HTRF) binding assay.
(Time-resolved FRET reads energy transfer from a long-lived donor to a nearby acceptor.)
In the case of `CCCC[C@H]1C(=O)N(C)[C@@H](CCCC)C(=O)N[C@@H](CC(C)C)C(=O)N[C@H](C(=O)NCC(N)=O)CSCC(=O)N[C@@H](Cc2ccc(O)cc2)C(=O)N(C)[C@@H](C)C(=O)N[C@@H](CC(N)=O)C(=O)N2CCC[C@H]2C(=O)N[C@H]2CNC(=O)NCCCCCCNC(=O)NCC[C@H](NC(=O)[C@H](Cc3c[nH]c4ccccc34)NC(=O)[C@@H]3C[C@@H](O)CN3C(=O)[C@H](CC(C)C)NC2=O)C(=O)N[C@@H](Cc2cn(CC(=O)O)c3ccccc23)C(=O)N1C` [Example 1001] ({CH2CO}-Y[NMeA]NP[Dap]L[Hyp]W[Dab][Trp(1-CH2COOH)][NMeNle][NMeNle]LCG-NH2; linker 5-9 via X3; thioether N-14), the IC50 is 4 nM.

`CCCC[C@H]1C(=O)N(C)[C@@H](CCCC)C(=O)N[C@@H](CC(C)C)C(=O)N[C@H](C(=O)NCC(N)=O)CSCC(=O)N[C@@H](Cc2ccc(O)cc2)C(=O)N(C)[C@H]2CN3CC[C@H](NC(=O)[C@H](Cc4c[nH]c5ccccc45)NC(=O)[C@@H]4C[C@@H](O)CN4C(=O)[C@H](CC(C)C)NC(=O)[C@H](CNc4c3c(=O)c4=O)NC(=O)[C@@H]3CCCN3C(=O)[C@H](CC(N)=O)NC2=O)C(=O)N[C@@H](Cc2cn(CC(=O)O)c3ccccc23)C(=O)N1C` [Example 1002] displayed an IC50 of 210 nM. Compared with the last molecule, the IC50 is about 52-fold higher.

`CCCC[C@H]1C(=O)N(C)[C@@H](CCCC)C(=O)N[C@@H](CC(C)C)C(=O)N[C@H](C(=O)NCC(N)=O)CSCC(=O)N[C@@H](Cc2ccc(O)cc2)C(=O)N(C)[C@@H](C)C(=O)N[C@@H](CC(N)=O)C(=O)N2CCC[C@H]2C(=O)N[C@H]2CNC(=O)C(=O)NCC[C@H](NC(=O)[C@H](Cc3c[nH]c4ccccc34)NC(=O)[C@@H]3C[C@@H](O)CN3C(=O)[C@H](CC(C)C)NC2=O)C(=O)N[C@@H](Cc2cn(CC(=O)OC)c3ccccc23)C(=O)N1C` [Example 1003] ({CH2CO}-Y[NMeA]NP[Dap]L[Hyp]W[Dab][Trp(1-CH2CO2Me)][NMeNle][NMeNle]LCG-NH2; linker 5-9 via Oxalyl; thioether N-14) returned an IC50 of 120 nM. Compared with the last molecule, the IC50 is about 1.8-fold lower.

`CCCC[C@H]1C(=O)N(C)[C@@H](CCCC)C(=O)N[C@@H](CC(C)C)C(=O)N[C@H](C(=O)NCC(N)=O)CSCC(=O)N[C@@H](Cc2ccc(O)cc2)C(=O)N(C)[C@@H](C)C(=O)N[C@@H](CC(N)=O)C(=O)N2CCC[C@H]2C(=O)N[C@H]2CNCC(O)COCC(O)CNCC[C@H](NC(=O)[C@H](Cc3c[nH]c4ccccc34)NC(=O)[C@@H]3C[C@@H](O)CN3C(=O)[C@H](CC(C)C)NC2=O)C(=O)N[C@@H](Cc2cn(CC(=O)O)c3ccccc23)C(=O)N1C` (stereo partly drawn) [Example 1004]: the 50% inhibitory concentration (IC50) worked out at 11 nM.

On to `CCCC[C@H]1C(=O)N(C)[C@@H](CCCC)C(=O)N[C@@H](CC(C)C)C(=O)N[C@H](C(=O)NCC(N)=O)CSCC(=O)N[C@@H](Cc2ccc(O)cc2)C(=O)N(C)[C@@H](C)C(=O)N[C@@H](CC(N)=O)C(=O)N(CC)[C@@H](C)C(=O)N[C@H]2CNC/C=C\CNCC[C@H](NC(=O)[C@H](Cc3c[nH]c4ccccc34)NC(=O)[C@@H]3C[C@@H](O)CN3C(=O)[C@H](CC(C)C)NC2=O)C(=O)N[C@@H](Cc2cn(CC(=O)O)c3ccccc23)C(=O)N1C` [Example 1005] ({CH2CO}-Y[NMeA]N[NEtAla][X1]L[Hyp]W[X2][Trp(1-CH2COOH)][NMeNle][NMeNle]LCG-NH2; staple (Z) 5-9; thioether N-14), for which the IC50 amounted to 8.3 nM. This IC50 and that of the molecule before are within 1.5-fold of each other.

Molecule `CCCC[C@H]1C(=O)N(C)[C@@H](CCCC)C(=O)N[C@@H](CC(C)C)C(=O)N[C@H](C(=O)NCC(N)=O)CSCC(=O)N[C@@H](Cc2ccc(O)cc2)C(=O)N(C)[C@@H](C)C(=O)N[C@@H](CC(N)=O)C(=O)N2CCC[C@H]2C(=O)N[C@H]2CNC(=S)Nc3cc(cc(C(=O)O)c3)NC(=S)NCC[C@H](NC(=O)[C@H](Cc3c[nH]c4ccccc34)NC(=O)[C@@H]3C[C@@H](O)CN3C(=O)[C@H](CC(C)C)NC2=O)C(=O)N[C@@H](Cc2cn(CC(=O)O)c3ccccc23)C(=O)N1C` [Example 1007] ({CH2CO}-Y[NMeA]NP[Dap]L[Hyp]W[Dab][Trp(1-CH2COOH)][NMeNle][NMeNle]LCG-NH2; linker 5-9 via X4; thioether N-14) yielded a half-inhibitory concentration (IC50) of 78 nM.
